Data: ChEMBL document CHEMBL5634145, “Discovery of novel amidobenzimidazole derivatives as orally available small molecule modulators of stimulator of interferon genes for cancer immunotherapy” (Eur J Med Chem, 2023)

Experiments:
[1] = Cytotoxicity against wild type human THP1-Dual cells assessed as cell viability incubated for 24 hrs by CellTiter 96 aqueous one solution assay relative to control; assay type: toxicity, cell-based; design: concentration or dose not given beside the values; conditions: read-out: Activity
[2] = Cytotoxicity against human THP1-Dual KO-STING cells assessed as cell viability incubated for 24 hrs by CellTiter 96 aqueous one solution assay relative to control; assay type: toxicity, cell-based; design: concentration or dose not given beside the values; conditions: read-out: Activity
[3] = target: Stimulator of interferon genes protein (Homo sapiens, UniProt Q86WV6); assay: Agonist activity at STING in wild type human THP1-Dual cells assessed as increase in IRF-mediated immune response incubated for 24 hrs by QUANTI-Luc assay; assay type: cell-based
Sequence of Stimulator of interferon genes protein (Q86WV6 whole entry): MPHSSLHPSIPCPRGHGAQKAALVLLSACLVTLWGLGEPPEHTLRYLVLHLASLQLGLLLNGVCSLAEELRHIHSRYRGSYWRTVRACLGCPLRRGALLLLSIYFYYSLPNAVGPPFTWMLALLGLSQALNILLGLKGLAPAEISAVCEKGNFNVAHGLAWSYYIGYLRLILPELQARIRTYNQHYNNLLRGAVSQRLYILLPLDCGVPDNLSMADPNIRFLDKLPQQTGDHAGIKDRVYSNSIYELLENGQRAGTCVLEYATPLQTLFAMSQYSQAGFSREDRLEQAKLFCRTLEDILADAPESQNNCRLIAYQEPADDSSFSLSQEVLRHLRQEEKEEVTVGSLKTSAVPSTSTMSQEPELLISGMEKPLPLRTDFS

Cytochrome P450 2C9 = Cytochrome P450 2C9 (Homo sapiens, UniProt P11712); assay: Inhibition of CYP2C9 in human liver microsomes using tolbutamide as substrate preincubated for 5 min followed by substrate and NADPH addition and measured after 20 mins by LC-MS/MS analysis; assay type: ADME, Microsome
Sequence of Cytochrome P450 2C9 (P11712 whole entry): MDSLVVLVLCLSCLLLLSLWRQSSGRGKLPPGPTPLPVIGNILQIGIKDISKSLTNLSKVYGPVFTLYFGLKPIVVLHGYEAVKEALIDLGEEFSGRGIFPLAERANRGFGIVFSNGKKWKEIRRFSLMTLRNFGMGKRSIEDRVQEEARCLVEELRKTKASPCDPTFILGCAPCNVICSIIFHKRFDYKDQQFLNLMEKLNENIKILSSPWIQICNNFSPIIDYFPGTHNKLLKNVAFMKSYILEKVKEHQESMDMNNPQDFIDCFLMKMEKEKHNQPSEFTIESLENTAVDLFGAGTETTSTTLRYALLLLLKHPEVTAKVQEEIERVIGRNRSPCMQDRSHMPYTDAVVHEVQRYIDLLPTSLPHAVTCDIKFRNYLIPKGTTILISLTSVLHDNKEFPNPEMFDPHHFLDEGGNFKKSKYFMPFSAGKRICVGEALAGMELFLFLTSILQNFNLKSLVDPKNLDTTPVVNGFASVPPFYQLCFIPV

[4] = target: Voltage-gated inwardly rectifying potassium channel KCNH2 (Homo sapiens, UniProt Q12809); assay: Inhibition of hERG by non-electrophysiological analysis; assay type: toxicity
Sequence of Voltage-gated inwardly rectifying potassium channel KCNH2 (Q12809 whole entry): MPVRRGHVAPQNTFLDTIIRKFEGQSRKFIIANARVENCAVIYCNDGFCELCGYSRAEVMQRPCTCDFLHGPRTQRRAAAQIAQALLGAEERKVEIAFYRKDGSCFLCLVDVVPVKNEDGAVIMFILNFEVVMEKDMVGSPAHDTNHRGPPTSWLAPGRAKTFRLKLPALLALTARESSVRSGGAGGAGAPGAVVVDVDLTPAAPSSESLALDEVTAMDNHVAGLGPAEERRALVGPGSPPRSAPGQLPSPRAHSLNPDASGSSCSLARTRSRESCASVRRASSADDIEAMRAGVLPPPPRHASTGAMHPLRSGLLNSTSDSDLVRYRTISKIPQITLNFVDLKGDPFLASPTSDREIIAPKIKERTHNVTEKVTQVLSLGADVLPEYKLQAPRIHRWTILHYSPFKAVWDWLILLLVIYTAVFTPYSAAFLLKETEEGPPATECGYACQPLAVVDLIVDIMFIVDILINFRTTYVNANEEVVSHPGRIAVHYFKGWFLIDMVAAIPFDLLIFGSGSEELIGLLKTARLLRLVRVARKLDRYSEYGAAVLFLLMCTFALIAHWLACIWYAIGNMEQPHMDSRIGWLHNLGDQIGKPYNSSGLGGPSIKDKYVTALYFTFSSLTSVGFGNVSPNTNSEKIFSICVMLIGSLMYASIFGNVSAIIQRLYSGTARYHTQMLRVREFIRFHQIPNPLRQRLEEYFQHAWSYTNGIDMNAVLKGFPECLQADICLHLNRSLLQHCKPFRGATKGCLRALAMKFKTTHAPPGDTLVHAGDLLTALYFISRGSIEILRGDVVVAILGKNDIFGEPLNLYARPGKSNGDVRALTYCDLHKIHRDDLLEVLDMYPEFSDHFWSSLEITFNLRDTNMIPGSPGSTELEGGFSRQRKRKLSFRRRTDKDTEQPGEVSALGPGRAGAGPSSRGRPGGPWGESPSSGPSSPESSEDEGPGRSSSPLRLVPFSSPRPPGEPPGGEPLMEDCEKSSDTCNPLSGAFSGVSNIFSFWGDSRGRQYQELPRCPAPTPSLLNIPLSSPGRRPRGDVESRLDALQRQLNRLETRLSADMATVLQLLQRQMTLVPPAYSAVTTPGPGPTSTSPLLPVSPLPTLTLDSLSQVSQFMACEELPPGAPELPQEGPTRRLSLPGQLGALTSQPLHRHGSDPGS

[5] = AUClast in ICR mouse at 5 mg/kg, iv by LC-MS/MS analysis; assay type: ADME, organism-based; conditions: in vivo
[6] = Metabolic stability at phase I in mouse liver microsomes assessed as remaining activity at 1 uM incubated for 30 mins in presence of NADPH by LC-MS/MS analysis; assay type: ADME, Microsome; conditions: read-out: Stability
[7] = Volume of distribution at steady state in ICR mouse at 5 mg/kg, iv by LC-MS/MS analysis; assay type: ADME, organism-based; conditions: in vivo, read-out: Vdss
[8] = AUC (0 to infinity) in ICR mouse at 20 mg/kg, po administered via oral gavage by LC-MS/MS analysis; assay type: ADME, organism-based; conditions: in vivo
Cytochrome P450 1A2 = target: T1, Cytochrome P450 1A2 (Homo sapiens, UniProt P05177); assay: Inhibition of CYP1A2 in human liver microsomes using phenacetin as substrate preincubated for 5 min followed by substrate and NADPH addition and measured after 20 mins by LC-MS/MS analysis; assay type: ADME, Microsome
T1 sequence (P05177 whole entry): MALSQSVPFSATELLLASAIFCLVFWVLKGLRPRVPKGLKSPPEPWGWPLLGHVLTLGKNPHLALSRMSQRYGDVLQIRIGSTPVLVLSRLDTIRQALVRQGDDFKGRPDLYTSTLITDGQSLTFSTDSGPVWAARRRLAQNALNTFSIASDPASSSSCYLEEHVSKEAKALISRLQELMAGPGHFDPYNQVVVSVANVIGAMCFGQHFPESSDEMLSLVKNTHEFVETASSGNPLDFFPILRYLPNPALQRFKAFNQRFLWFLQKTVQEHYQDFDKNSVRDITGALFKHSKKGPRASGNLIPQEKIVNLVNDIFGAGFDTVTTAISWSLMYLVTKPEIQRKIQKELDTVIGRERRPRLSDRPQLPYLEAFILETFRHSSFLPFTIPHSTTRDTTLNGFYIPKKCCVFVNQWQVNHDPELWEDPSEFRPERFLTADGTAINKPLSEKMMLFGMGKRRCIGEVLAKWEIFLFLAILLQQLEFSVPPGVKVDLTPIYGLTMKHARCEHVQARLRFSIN

[9] = Metabolic stability at phase I in human liver microsomes assessed as remaining activity at 1 uM incubated for 30 mins in presence of NADPH by LC-MS/MS analysis; assay type: ADME, Microsome; conditions: read-out: Stability
[10] = Toxicity in BALB/c mouse implanted with mouse 4T1 cells assessed as body weight loss at 16 mg/kg, po administrated every other day for 6 times and measured after 12 days; assay type: organism-based; conditions: in vivo, 288 h, time 12 day
Cytochrome P450 2C19 = Cytochrome P450 2C19 (Homo sapiens, UniProt P33261); assay: Inhibition of CYP2C19 in human liver microsomes using S-Mephenytoin as substrate preincubated for 5 min followed by substrate and NADPH addition and measured after 20 mins by LC-MS/MS analysis; assay type: ADME, Microsome
Sequence of Cytochrome P450 2C19 (P33261 whole entry): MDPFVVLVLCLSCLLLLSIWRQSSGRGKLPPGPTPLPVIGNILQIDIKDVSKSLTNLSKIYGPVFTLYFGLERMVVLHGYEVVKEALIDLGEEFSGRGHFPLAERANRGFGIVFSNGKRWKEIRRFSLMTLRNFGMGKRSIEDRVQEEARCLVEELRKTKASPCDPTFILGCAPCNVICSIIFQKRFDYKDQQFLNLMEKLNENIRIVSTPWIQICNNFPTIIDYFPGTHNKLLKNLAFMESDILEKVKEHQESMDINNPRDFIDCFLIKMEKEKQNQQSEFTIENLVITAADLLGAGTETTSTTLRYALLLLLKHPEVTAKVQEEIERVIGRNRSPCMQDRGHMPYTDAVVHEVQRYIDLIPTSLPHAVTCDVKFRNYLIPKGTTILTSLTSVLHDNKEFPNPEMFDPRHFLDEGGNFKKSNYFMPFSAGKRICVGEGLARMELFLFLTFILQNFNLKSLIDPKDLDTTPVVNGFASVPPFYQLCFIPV

[11] = Cmax in ICR mouse at 20 mg/kg, po administered via oral gavage by LC-MS/MS analysis; assay type: ADME, organism-based; conditions: in vivo
[12] = Tmax in ICR mouse at 20 mg/kg, po administered via oral gavage by LC-MS/MS analysis; assay type: ADME, organism-based; conditions: in vivo
[13] = Half life in ICR mouse at 20 mg/kg, po administered via oral gavage by LC-MS/MS analysis; assay type: ADME, organism-based; conditions: in vivo
[14] = Clearance in ICR mouse at 5 mg/kg, iv by LC-MS/MS analysis; assay type: ADME, organism-based; conditions: in vivo
Cytochrome P450 2D6 = Cytochrome P450 2D6 (Homo sapiens, UniProt P10635); assay: Inhibition of CYP2D6 in human liver microsomes using dextromethorphan as substrate preincubated for 5 min followed by substrate and NADPH addition and measured after 20 mins by LC-MS/MS analysis; assay type: ADME, Microsome
Sequence of Cytochrome P450 2D6 (P10635 whole entry): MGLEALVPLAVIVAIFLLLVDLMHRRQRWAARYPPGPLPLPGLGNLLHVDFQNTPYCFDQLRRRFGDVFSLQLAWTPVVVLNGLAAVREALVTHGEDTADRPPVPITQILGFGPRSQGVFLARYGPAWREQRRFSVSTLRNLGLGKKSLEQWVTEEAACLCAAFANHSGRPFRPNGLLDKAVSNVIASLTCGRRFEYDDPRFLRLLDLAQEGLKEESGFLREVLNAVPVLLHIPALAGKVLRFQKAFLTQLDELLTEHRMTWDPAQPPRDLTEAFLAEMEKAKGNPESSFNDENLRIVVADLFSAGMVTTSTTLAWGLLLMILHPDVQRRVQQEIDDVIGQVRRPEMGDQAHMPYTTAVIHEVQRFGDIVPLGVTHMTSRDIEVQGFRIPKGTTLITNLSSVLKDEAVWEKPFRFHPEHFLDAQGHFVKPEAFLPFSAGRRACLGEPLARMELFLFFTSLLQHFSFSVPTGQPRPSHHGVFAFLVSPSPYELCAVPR

Cytochrome P450 3A4 = Cytochrome P450 3A4 (Homo sapiens, UniProt P08684); assay: Inhibition of CYP3A4 in human liver microsomes using […] as substrate preincubated for 5 min followed by substrate and NADPH addition and measured after 20 mins by LC-MS/MS analysis; assay type: ADME, Microsome
Sequence of Cytochrome P450 3A4 (P08684 whole entry): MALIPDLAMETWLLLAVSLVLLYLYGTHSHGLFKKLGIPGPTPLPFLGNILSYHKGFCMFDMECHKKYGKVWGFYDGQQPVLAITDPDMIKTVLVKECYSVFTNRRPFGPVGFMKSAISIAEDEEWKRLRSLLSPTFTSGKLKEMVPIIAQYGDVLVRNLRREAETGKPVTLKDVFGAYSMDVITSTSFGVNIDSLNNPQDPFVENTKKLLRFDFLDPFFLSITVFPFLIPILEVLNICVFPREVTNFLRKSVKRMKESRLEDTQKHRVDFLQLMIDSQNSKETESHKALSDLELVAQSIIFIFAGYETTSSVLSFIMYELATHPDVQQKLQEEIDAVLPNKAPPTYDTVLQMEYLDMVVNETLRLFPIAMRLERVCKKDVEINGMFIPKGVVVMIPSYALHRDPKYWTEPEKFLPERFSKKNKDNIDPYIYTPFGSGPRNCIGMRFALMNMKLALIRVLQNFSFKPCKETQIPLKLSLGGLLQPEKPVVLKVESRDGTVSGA

[15] = Half life in ICR mouse at 5 mg/kg, iv by LC-MS/MS analysis; assay type: ADME, organism-based; conditions: in vivo
[16] = Stability in human plasma assessed as remaining activity at 5 uM incubated for 4 hrs by LC-MS/MS analysis; assay type: ADME, cell-free; conditions: read-out: Stability
[17] = Stability in mouse plasma assessed as remaining activity at 5 uM incubated for 4 hrs by LC-MS/MS analysis; assay type: ADME, cell-free; conditions: read-out: Stability
[18] = Plasma protein binding in mouse; assay type: ADME, cell-free; conditions: read-out: PPB (converted)
[19] = AUC (0 to infinity) in ICR mouse at 5 mg/kg, iv by LC-MS/MS analysis; assay type: ADME, organism-based; conditions: in vivo
RAW264.7 = assay: Cytotoxicity against mouse RAW264.7 cells assessed as reduction in cell viability at 0 to 80 uM incubated for 24 hrs by CellTiter 96 aqueous one solution assay; assay type: toxicity, cell-based; conditions: raw264.7, 24 h, dose 0-80 µM
[20] = Oral bioavailability in ICR mouse at 20 mg/kg administered via oral gavage by LC-MS/MS analysis; assay type: ADME, organism-based; conditions: in vivo
[21] = AUClast in ICR mouse at 20 mg/kg, po administered via oral gavage by LC-MS/MS analysis; assay type: ADME, organism-based; conditions: in vivo
[22] = Plasma protein binding in human; assay type: ADME, cell-free; conditions: read-out: PPB (converted)
THP1-Dual = assay: Cytotoxicity against human THP1-Dual cells assessed as reduction in cell viability at 0 to 50 uM incubated for 24 hrs by CellTiter 96 aqueous one solution assay; assay type: toxicity, cell-based; conditions: dose 0-50 µM

## Cc1ccc(C(=O)Nc2nc3cc(C(N)=O)ccc3n2CCCCNC(=O)OC(C)(C)C)c(C)n1
[1]
  viability at 24 h: 112%
[2]
  viability at 24 h: 93.2%

## CCc1ncccc1C(=O)Nc1nc2cc(C(N)=O)ccc2n1CCCCNC(=O)OC(C)(C)C
[1]
  viability at 24 h: 89.2%
[2]
  viability at 24 h: 94.7%

## Cc1ncccc1C(=O)Nc1nc2cc(C(N)=O)ccc2n1CCCCCN
[1]
  viability at 24 h: 110%
[2]
  viability at 24 h: 99.3%

## Cc1ccc(C(=O)Nc2nc3cc(C(N)=O)ccc3n2CCCCNC(=O)OC(C)(C)C)cn1
[1]
  viability at 24 h: 89.3%
[2]
  viability at 24 h: 95.3%

## Cc1ncccc1C(=O)Nc1nc2cc(C(N)=O)ccc2n1C
[1]
  viability at 24 h: 82.8%
[2]
  viability at 24 h: 105%

## Cc1ncccc1C(=O)Nc1nc2cc(C(N)=O)ccc2n1CCCCCNC(=O)OC(C)(C)C
[1]
  viability at 24 h: 92.2%
[2]
  viability at 24 h: 92%

## CC(C)(C)OC(=O)NCCCCn1c(NC(=O)c2cccnc2)nc2cc(C(N)=O)ccc21
[1]
  viability at 24 h: 97.4%
[3]
  EC50: 42.1 µM
[2]
  viability at 24 h: 93.3%

## COc1cc(C(N)=O)cc2nc(NC(=O)c3ccc(C(F)(F)F)nc3C)n(C/C=C/CNC(=O)OC(C)(C)C)c12
[1]
  viability at 24 h: 87.5%
[2]
  viability at 24 h: 107%

## Cc1ncccc1C(=O)Nc1nc2cc(C(N)=O)ccc2n1CCCNC(=O)OC(C)(C)C
[1]
  viability at 24 h: 102%
[2]
  viability at 24 h: 93.6%

## CC(C)(C)OC(=O)NCCCCn1c(NC(=O)c2cccnc2F)nc2cc(C(N)=O)ccc21
[1]
  viability at 24 h: 107%
[2]
  viability at 24 h: 108%

## Cc1ccncc1C(=O)Nc1nc2cc(C(N)=O)ccc2n1CCCCNC(=O)OC(C)(C)C
[1]
  viability at 24 h: 88.5%
[2]
  viability at 24 h: 87.8%

## CC(C)(C)OC(=O)NCCCCn1c(NC(=O)c2cccnc2C(F)(F)F)nc2cc(C(N)=O)ccc21
[1]
  viability at 24 h: 108%
[2]
  viability at 24 h: 102%

## CC(=O)NCCCCn1c(NC(=O)c2cccnc2C)nc2cc(C(N)=O)ccc21
[1]
  viability at 24 h: 99.7%
[2]
  viability at 24 h: 97.4%

## CCn1nc(C)cc1C(=O)Nc1nc2cc(C(N)=O)ccc2n1CCCCn1c(NC(=O)c2cc(C)nn2CC)nc2cc(C(N)=O)ccc21
[1]
  viability at 24 h: 101%
[3]
  EC50: 9.2 µM
[2]
  viability at 24 h: 117%

## CC(C)(C)OC(=O)NCCCCn1c(NC(=O)c2cccnc2C(C)(C)C)nc2cc(C(N)=O)ccc21
[1]
  viability at 24 h: 91.6%
[2]
  viability at 24 h: 106%

## Cc1ncccc1C(=O)Nc1nc2cc(C(N)=O)ccc2n1CCCCNC(=O)OC(C)(C)C
Cytochrome P450 2C9
  IC50: 28.3 µM
[1]
  viability at 24 h: 99.4%
[4]
  IC50: > 100 µM
[5]
  AUC(0-t): 880 ng·h/mL
[6]
  remaining at 0.5 h, 1 µM: 18.1%
[7]
  Vd: 11.7 L/kg
[8]
  AUC(0-inf): 210 ng·h/mL
Cytochrome P450 1A2
  IC50: > 100 µM
[9]
  remaining at 0.5 h, 1 µM: 27.9%
[10]
  Activity: Non-Toxic
Cytochrome P450 2C19
  IC50: 8.8 µM
[11]
  Cmax: 110 ng/mL
[12]
  Tmax: 0.42 h
[13]
  half-life: 13.3 h
[14]
  clearance: 95.5 mL/min/kg
Cytochrome P450 2D6
  IC50: 16.5 µM
Cytochrome P450 3A4
  IC50: 10.5 µM
[15]
  half-life: 11.2 h
[16]
  remaining at 4 h, 5 µM: > 99.9%
[17]
  remaining at 4 h, 5 µM: 99.5%
[18]
  fraction unbound: 0.0624
[19]
  AUC(0-inf): 900 ng·h/mL
RAW264.7
  Activity: Non-Toxic
[20]
  bioavailability: 5.23%
[21]
  AUC(0-t): 180 ng·h/mL
[22]
  fraction unbound: 0.0211
THP1-Dual
  Activity: Non-Toxic
[2]
  viability at 24 h: 106%
